Assay results from patent US10280134B1, “Potent cytotoxic agent against human hepatocellular carcinoma cell line based on 2-aryl hydrazonopropanal pharmacophore” (King Abdulaziz University, priority 2018, dated 2019).
pIC50: −log10 of the molar value. In brackets after ≈: the same amount, converted by molar mass. Read-outs that look alike come from different tables or passages of the source.

How the values were obtained:
[1] = test system: BJ1 (Normal Skin Fibroblast); assay: MTT cytotoxicity assay on normal human fibroblast cell line BJ1; format: cell-based; settings: for Remarks (% lethality at 100 ppm): BJ1 normal skin fibroblast, 48 hrs; for IC50 / IC90: Homo sapiens, Skin fibroblast, 48 h; for IC50: read-out: IC50: Lethal concentration of the sample which causes the death of 50% of cells in 48 hrs; for IC90: read-out: IC90: Lethal concentration of the sample which causes the death of 90% of cells in 48 hrs
Procedure: The activity of the test compounds on a non-cancerous, normal human fibroblast cell line, BJ1, was assessed by the mitochondrial dependent reduction of yellow MTT (3-(4,5-dimethylthiazol-2-yl)-2,5-diphenyl tetrazolium bromide) to purple formazan; Mosmann T. Rapid colorimetric assays for cellular growth and survival: Application to proliferation and cytotoxicity assays. J Immunol Methods.
All procedures were done in a sterile area using a Laminar flow cabinet biosafety class II level (Baker, SG4031NT, Sanford, Me., USA).
(§1) Cells were batch cultured for 10 days, then seeded at concentration of 10×10^3 cells/well in fresh complete growth medium in 96-well microtiter plastic plates at 37° C. for 24 h under 5% CO2 using a water jacketed Carbon dioxide incubator (Sheldon, TC2323, Cornelius, Oreg., USA). […] To stop the reaction and dissolving the formed crystals, 200 μL of 10% Sodium dodecyl sulphate (SDS) in deionized water was added to each well and incubated overnight at 37° C.
(§2) A statistical significance was tested between samples and negative control (cells with vehicle) using independent t-test by SPSS 11 program. DMSO is the vehicle used for dissolution of plant extracts and its final concentration on the cells was less than 0.2%. The percentage of change in viability was calculated according to the formula: ((Reading of extract/Reading of negative control)−1)×100.
Data Analysis of Cytotoxic Activity Test. Sample Testing Against the Normal Human Epithelial Cell Line: BJ1 (Normal Skin Fibroblast).

[2] = test system: hepatocellular carcinoma cell line HEPG2; assay: MTT cytotoxicity assay on human hepatocellular carcinoma cell line HePG2; format: cell-based; settings: for Remarks (% lethality at 100 ppm): HEPG2, at 100 ppm; for Remarks (% lethality at 100 ppm) / IC50 / IC90: 48 hrs; for IC50 / IC90: HEPG2, MTT, 100 to 0.78 μg/ml; for IC50: read-out: IC50: Lethal concentration of the sample which causes the death of 50% of cells in 48 hrs; for IC90: read-out: IC90: Lethal concentration of the sample which causes the death of 90% of cells in 48 hrs
Procedure: Cell viability was assessed by the mitochondrial dependent reduction of yellow MTT (3-(4,5-dimethylthiazol-2-yl)-2,5-diphenyl tetrazolium bromide) to purple formazan; Mossman, et al., id.
All procedures were done in a sterile area using a Laminar flow cabinet biosafety class II level (Baker, SG403INT, Sanford, Me., USA).
as §1, §2
Samples Tested Against the Human Tumor Cell Line(s): HePG 2 a Human Hepatocellular Carcinoma Cell Line.

Row | SMILES | Remarks (% lethality at 100 ppm) [1] [% at 100 ppm] | IC50 [1] [µg/mL] | IC90 [1] [µg/mL] | Remarks (% lethality at 100 ppm) [2] [% at 100 ppm] | IC50 ([2]; Homo sapiens) [µg/mL] | IC90 ([2]; Homo sapiens) [µg/mL] | safety on normal human cell line (in words) ([1]; normal human epithelial cell line (BJ1)) | pIC50 ([2]; Homo sapiens, HEPG2, positive control, Table 3, Mw = 579.99, read-out: IC50 (positive control))
1 | COC(=O)c1ccccc1N/N=C(\C=O)C(=O)c1cccs1 [Compound 3] | 80 | 61 (≈ 193 µM) | 105 (≈ 332 µM) | 100 | 14.7 | 26 (≈ 82.2 µM) |  | 
2 | COC(=O)c1ccccc1N/N=C(\C=O)C(C)=O [Compound 2] | 100 | 16.9 (≈ 68.1 µM) | 29.1 (≈ 117 µM) | 100 | 15.7 | 28.3 (≈ 114 µM) |  | 
3 | COC(=O)c1ccccc1N/N=C(\C=O)C(=O)c1ccccc1 [Compound 1] | 41.5 |  |  | 95.3 | 45.5 | 77.3 (≈ 249 µM) | substantially safe | 
4 | COc1cccc2c1C(=O)c1c(O)c3c(c(O)c1C2=O)C[C@@](O)(C(=O)CO)C[C@@H]3O[C@H]1C[C@H](N)[C@H](O)[C@H](C)O1 [Doxorubicin, doxorubicin, reference compound] |  |  |  |  |  |  |  | 4.42
